Test results reported in ChEMBL document CHEMBL1145728, “Structure--activity relationships of the peptide deformylase inhibitor BB-3497: modification of the P2' and P3' side chains” (Bioorg Med Chem Lett, 2003).
≈ marks a conversion by molar mass, not a printed value.

Experiments:
[1] = tested on: Escherichia coli; experiment: Antibacterial activity against Escherichia coli.; format: functional
[2] = biological target: T1, Peptide deformylase (Escherichia coli, UniProt Q9JN24); experiment: Inhibition concentration against Escherichia coli peptide deformylase.
T1 sequence (Q9JN24 whole entry): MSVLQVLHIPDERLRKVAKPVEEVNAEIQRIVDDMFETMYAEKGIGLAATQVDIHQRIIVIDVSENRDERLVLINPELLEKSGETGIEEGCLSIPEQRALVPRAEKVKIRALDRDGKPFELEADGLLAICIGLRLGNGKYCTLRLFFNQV

[3] = tested on: Staphylococcus capitis; experiment: Antibacterial activity against Staphylococcus capitis.; format: functional
[4] = Escherichia coli, read-out: MIC
[5] = Staphylococcus capitis, read-out: MIC

| SMILES | MIC [1, 4] [µM] | IC50 [2] [µM] | MIC [3, 5] [µM] | MIC [1] [µM] | MIC [3] [µM] |
| --- | --- | --- | --- | --- | --- |
| CCCC[C@H](CN(O)C=O)C(=O)N[C@H](C(=O)N1CCC(C(C)=O)CC1)C(C)(C)C | 100 (≈ 41.2 µg/mL) | 0.01 | 25 (≈ 10.3 µg/mL) | – | – |
| CCCC[C@H](CN(O)C=O)C(=O)N[C@@H](CC1CCCCC1)C(=O)N(C)C | 100 (≈ 37 µg/mL) | 0.03 | 100 (≈ 37 µg/mL) | – | – |
| CCCC[C@H](CN(O)C=O)C(=O)N1Cc2ccccc2C[C@H]1C(=O)N(C)C | > 200 | – | > 200 | – | – |
| CCCC[C@H](CN(O)C=O)C(=O)N[C@H](C(=O)N1CCCC2CCCCC21)C(C)(C)C (some centres undefined) | > 200 | – | 50 (≈ 21.2 µg/mL) | – | – |
| CCCC[C@H](CN(O)C=O)C(=O)N[C@H](C(=O)N1CCC(C(=O)OCC)CC1)C(C)(C)C | > 200 | 0.01 | 25 (≈ 11 µg/mL) | – | – |
| CCCC[C@H](CN(O)C=O)C(=O)N[C@H](C(=O)N1CCOCC1)C(C)(C)C | 25 (≈ 9.29 µg/mL) | 0.02 | 25 (≈ 9.29 µg/mL) | – | – |
| CCCC[C@H](CN(O)C=O)C(=O)N[C@H](C(=O)N(C)C)C(C)(C)O | 12.5 (≈ 4.14 µg/mL) | – | 25 (≈ 8.29 µg/mL) | – | – |
| CCCC[C@H](CN(O)C=O)C(=O)N1CCC[C@H]1C(=O)N(C)C | > 200 | 0.4 | 50 (≈ 15.7 µg/mL) | – | – |
| CCCC[C@H](CN(O)C=O)C(=O)N[C@H](C(=O)N1CCCC1)C(C)(C)C | 25 (≈ 8.89 µg/mL) | – | 25 (≈ 8.89 µg/mL) | – | – |
| CCCC[C@H](CN(O)C=O)C(=O)N[C@@H](C)C(=O)N(C)C | 25 (≈ 7.18 µg/mL) | 0.04 | 100 (≈ 28.7 µg/mL) | – | – |
| CCCC[C@H](CN(O)C=O)C(=O)N[C@@H](CO)C(=O)N(C)C | 100 (≈ 30.3 µg/mL) | – | 50 (≈ 15.2 µg/mL) | – | – |
| CCCC[C@H](CN(O)C=O)C(=O)N[C@@H](CCCCN(C)C)C(=O)N(C)C | > 200 | 0.3 | > 200 | – | – |
| CCCC[C@H](CN(O)C=O)C(=O)N[C@@H](Cc1ccc(Cl)cc1)C(=O)N(C)C | > 200 | 0.05 | 100 (≈ 39.8 µg/mL) | – | – |
| CCCC[C@H](CN(O)C=O)C(=O)N[C@H](C(=O)N1CCC(Cc2ccccc2)CC1)C(C)(C)C | 200 (≈ 91.9 µg/mL) | 0.02 | 6.25 (≈ 2.87 µg/mL) | – | – |
| CCCC[C@H](CN(O)C=O)C(=O)N[C@H](C(=O)N(C)C)C(C)(C)C (stereo in doubt; form 1) | – | 0.007 | – | – | – |
| CCCC[C@H](CN(O)C=O)C(=O)N[C@@H](Cc1ccc(O)cc1)C(=O)N(C)C | > 200 | 0.3 | > 200 | – | – |
| CCCC[C@H](CN(O)C=O)C(=O)N[C@H](C(=O)N(C)C)C(C)(C)C (stereo in doubt; form 2) | – | 0.04 | – | 100 (≈ 32.9 µg/mL) | >200 |
| CCCC[C@H](CN(O)C=O)C(=O)N[C@H](C(=O)N(C)C)C(C)(C)OC | 25 (≈ 8.64 µg/mL) | – | 100 (≈ 34.5 µg/mL) | – | – |
| CCCC[C@H](CN(O)C=O)C(=O)N[C@H](C(=O)N1CCCc2ccccc21)C(C)(C)C | 50 (≈ 20.9 µg/mL) | 0.009 | 50 (≈ 20.9 µg/mL) | – | – |

| SMILES | MIC [1, 4] [µM] | IC50 [2] [µM] | MIC [3, 5] [µM] | MIC [1] [µM] | MIC [3] [µM] |
| --- | --- | --- | --- | --- | --- |
| CCCC[C@H](CN(O)C=O)C(=O)N[C@@H](CCCNC(=N)N)C(=O)N(C)C | > 200 | 0.02 | 50 (≈ 18.6 µg/mL) | – | – |
| CCCC[C@H](CN(O)C=O)C(=O)N[C@H](C(=O)N(C)C)C(C)CC (some centres undefined) | 25 (≈ 8.24 µg/mL) | 0.02 | 12.5 (≈ 4.12 µg/mL) | – | – |
| CCCC[C@H](CN(O)C=O)C(=O)N[C@@H](CCC(=O)OCc1ccccc1)C(=O)N(C)C | > 200 | 0.02 | 200 (≈ 87.1 µg/mL) | – | – |
| CCCC[C@H](CN(O)C=O)C(=O)N[C@@H](CCCCN)C(=O)N(C)C | > 200 | 0.2 | > 200 | – | – |
| CCCC[C@H](CN(O)C=O)C(=O)N[C@@H](CC(C)C)C(=O)N(C)C | 50 (≈ 16.5 µg/mL) | 0.02 | 50 (≈ 16.5 µg/mL) | – | – |
| CCCC[C@H](CN(O)C=O)C(=O)N[C@@H](CC(=O)OCc1ccccc1)C(=O)N(C)C | > 200 | 0.1 | 25 (≈ 10.5 µg/mL) | – | – |
| CCCC[C@H](CN(O)C=O)C(=O)N[C@H](C(=O)N1CCC(C)CC1)C(C)(C)C | 100 (≈ 38.4 µg/mL) | 0.01 | 50 (≈ 19.2 µg/mL) | – | – |
| CCCC[C@H](CN(O)C=O)C(=O)N[C@H](C(=O)O)C(C)(C)C | > 200 | 0.08 | > 200 | – | – |
| CCCC[C@H](CN(O)C=O)C(=O)N[C@H](C(=O)N(C)C1CCCCC1)C(C)(C)C | > 200 | – | 100 (≈ 39.8 µg/mL) | – | – |
| CCCC[C@H](CN(O)C=O)C(=O)N[C@H](C(=O)N(C)C)C(C)C | 25 (≈ 7.89 µg/mL) | 0.02 | 25 (≈ 7.89 µg/mL) | – | – |
| CCCC[C@H](CN(O)C=O)C(=O)N[C@@H](Cc1ccccc1)C(=O)N(C)C | 100 (≈ 36.3 µg/mL) | – | 50 (≈ 18.2 µg/mL) | – | – |
| CCCC[C@H](CN(O)C=O)C(=O)N[C@H](C(C)=O)C(C)(C)C | 25 (≈ 7.51 µg/mL) | 0.02 | 100 (≈ 30 µg/mL) | – | – |
| CCCC[C@H](CN(O)C=O)C(=O)NCC(=O)N(C)C | 50 (≈ 13.7 µg/mL) | – | > 200 | – | – |
| CCCC[C@H](CN(O)C=O)C(=O)N[C@H](C(=O)N(CCc1ccccc1)Cc1ccccc1)C(C)(C)C | > 200 | 0.09 | 100 (≈ 49.6 µg/mL) | – | – |
| CCCC[C@H](CN(O)C=O)C(=O)N[C@H](C(=O)OC)C(C)(C)C | 50 (≈ 15.8 µg/mL) | 0.03 | 200 (≈ 63.3 µg/mL) | – | – |
| CCCC[C@H](CN(O)C=O)C(=O)N[C@@H](CSCc1ccccc1)C(=O)N(C)C | 200 (≈ 81.9 µg/mL) | 0.07 | 12.5 (≈ 5.12 µg/mL) | – | – |
| CCCC[C@H](CN(O)C=O)C(=O)N[C@H](C(=O)N(C)C)C(C)(C)SC | 25 (≈ 9.04 µg/mL) | – | 25 (≈ 9.04 µg/mL) | – | – |
| CCCC[C@H](CN(O)C=O)C(=O)N[C@H](C(=O)N1CCN(C)CC1)C(C)(C)C | 25 (≈ 9.61 µg/mL) | 0.05 | 50 (≈ 19.2 µg/mL) | – | – |
